The subject of data set [1] is pooled human liver microsomes (HLM). Nature of the data set: Formation kinetics of SRL metabolites by pooled human liver microsomes. It counts as in vitro ADME. To be noted: for Vmax: apparent Vmax of formation of the metabolite from sirolimus; for Vmax / Km: Michaelis–Menten fit; for Km: apparent Km of formation of the metabolite from sirolimus; for CLint: apparent intrinsic clearance of formation of the metabolite, CLint = Vmax/Km. Here is the method: (§1) Apparent enzyme kinetic parameters for the major SRL metabolites were assessed. […] Before the addition of the SRL, the NADPH-generating system was preincubated at 37 °C (type C24 incubator shaker, New Brunswick Scientific, Edison, NJ, USA) for 5 min. […] The final volume of the reaction solution was 500 μL, and the reaction was quenched by the addition of a 1:1 volume of ice-cold acetonitrile. Following protein precipitation, samples were briefly vortexed and subsequently centrifuged at 4 °C and 13,000× g for 10 min. The supernatant was transferred to a 2-mL HPLC glass vial and analyzed using high-performance liquid chromatography/tandem mass spectrometry (LC-MS/MS). Representative control incubations without HLMs, without drug, or without the NADPH-generating system (all in quadruplicate) were carried out under the same conditions with every SRL HLM metabolism batch.
(§2) For data analysis, we utilized Sciex Analyst Software (version TF1.7.1) to process and interpret mass spectrometry data. […] Kinetics data was fitted using the GraphPad Prism Enzyme Kinetics Module (Version 10.0.2, for Windows, GraphPad Software, Boston, MA, USA).
(§3) The formation rates of hydroxy SRL and desmethyl SRL were analyzed and fitted using Michaelis–Menten kinetics. This approach enables the determination of kinetic parameters such as Vmax (maximum reaction velocity) and Km (substrate concentration at half-maximal velocity), which provide insight into the enzymatic activity and substrate affinity for these metabolites. […] To compare the formation of the various metabolites and to predict the human hepatic clearance, the apparent intrinsic clearances of the formation of the metabolites (CLint = Vmax/Km) were calculated.
(Liver microsomes are a subcellular fraction often used to study metabolism.)

Data set [2] deals with phytohemagglutinin-stimulated human lymphocyte proliferation. The arrangement: method as in PMID 1352208. The settings on record: percent of the immunosuppressive activity of SRL; cited from earlier work.
Data set [3] can be described thus: Formation kinetics of SRL metabolites by pooled human liver microsomes. In kind it is in vitro ADME. The settings on record: human, pooled human liver microsomes, pH 7.4; sum over metabolite formation, pooled HLM, CLint = Vmax/Km; read-out: total Clint derived from the formation of hydroxylated and demethylated SRL metabolites. The method, then: as §1, §2, §3
On the set-up of data set [4]: method as in doi:10.1016/S0955-470X(10)80014-X, PMID 11165091. The settings on record: stability is increased in a mildly acidic environment; cited from earlier work.

What is called Km is the substrate concentration at which the rate is half of its maximum.

For the compound 11-Hydroxy sirolimus [11-Hydroxy SRL], the Vmax in data set [1] (n = 4) was 6.203 pmol/mg protein/min; in data set [1] (n = 4, listed as 11-hydroxy SRL), 6.2 pmol/mg protein/min.
As to “23/24-Hydroxy sirolimus [23/24-Hydroxy SRL]”, the Vmax in data set [1] (n = 4) was 2.221 pmol/mg protein/min.
Same read-out and setting: the figure for “27-O-Desmethyl sirolimus [27-O-desmethyl SRL]” is 0.552 pmol/mg protein/min.
In the case of `CO[C@H]1C[C@@H]2CC(O)[C@@H](C)[C@@](O)(O2)C(=O)C(=O)N2CCCC[C@H]2C(=O)O[C@H]([C@H](C)C[C@@H]2CC[C@@H](O)[C@H](OC)C2)CC(=O)[C@H](C)/C=C(\C)[C@@H](O)[C@@H](OC)C(=O)[C@H](C)C[C@H](C)/C=C/C=C/C=C/1C` (stereo partly drawn) [12-Hydroxy SRL, 12-Hydroxy sirolimus], the Km in data set [1] (n = 4) stood at 7.21 µM. The Vmax in data set [1] (n = 4) was found to be 4.264 pmol/mg protein/min; in data set [1] (n = 4, listed as 12-hydroxy SRL), 4.3 pmol/mg protein/min. Further, the CLint in data set [1] is 0.6 µL/mg protein/min.
As for `CO[C@@H]1C[C@H](C[C@@H](C)[C@@H]2CC(=O)[C@H](C)/C=C(\C)[C@@H](O)[C@@H](OC)C(=O)[C@H](C)C[C@H](C)/C=C/C=C/C=C(\C)[C@@H](O)C[C@@H]3CC[C@@H](C)[C@@](O)(O3)C(=O)C(=O)N3CCCC[C@H]3C(=O)O2)CC[C@H]1O` [16-O-desmethyl SRL, 16-O-Desmethyl sirolimus], in data set [1] (n = 4), the Km came out at 24.4 µM and the Vmax stood at 1.828 pmol/mg protein/min. Also, the CLint in data set [1] stood at 0.08 µL/mg protein/min.
For `COC1CC2CCC(C)C(O)(O2)C(=O)C(=O)N2CCCCC2C(=O)OC(C(C)CC2CCC(O)C(O)C2)CC(=O)C(C)C=C(C)C(O)C(OC)C(=O)C(C)CC(C)C=CC=CC=C1C` (stereo not drawn) [39-O-desmethyl SRL, 39-O-Desmethyl sirolimus], the Km in data set [1] (n = 4) amounted to 15 µM. Moreover, the Vmax was 9.6 pmol/mg protein/min in data set [1] (n = 4) and 9.647 pmol/mg protein/min in data set [1] (n = 4, listed as 39-O-desmthyl SRL). Moreover, the CLint in data set [1] came to 0.65 µL/mg protein/min. The “immunosuppressive activity relative to SRL” value in data set [2] is recorded as 10%.
As for `CO[C@H]1C[C@@H]2CC[C@@H](C)[C@@](O)(O2)C(=O)C(=O)N2CCCC[C@H]2C(=O)O[C@H]([C@H](C)C[C@@H]2CC[C@@H](O)[C@H](OC)C2)CC(=O)[C@H](C)/C=C(\C)[C@@H](O)[C@@H](OC)C(=O)[C@H](C)C[C@H](C)/C=C/C=C/C=C/1C` [SRL, Sirolimus], the microsomal CLint in data set [3] worked out at 2.35 µL/min/mg. For the same compound, the “stability in aqueous solutions” value in data set [4] is recorded as “low stability in aqueous solutions”.

The values above are taken from paper PMC12299981, “Human Metabolism of Sirolimus Revisited” (Metabolites, 2025).
